One may read the MIC as the smallest concentration in the dilution series that meets the test's criterion for growth inhibition.

This note sets out measurements from patent US10907158B2, “Antisense antibacterial compounds and methods” (priority 2015, dated 2021).

The test system of one test is K. pneumoniae. As to the kind of experiment: MIC of meropenem in various concentrations of KPC PPMO. The settings on record: Klebsiella pneumoniae, read-out: MIC of meropenem.
Another test concerns NDM-1 strains. As to the kind of experiment: MIC of meropenem in various concentrations of NDM-1 PPMO. Format: cell-based, K. pneumoniae. The note with it: Klebsiella pneumoniae; meropenem without PPMO.
A further test deals with E. coli BW25113. Format: cell-based. The settings on record: Pip/Tazo alone, 18 h, MHII.
Another test deals with Pseudomonas aeruginosa. The settings on record: 18 hours.

Experimental for Pseudomonas aeruginosa: Strains were grown on MSEC biofilm plates for 18 hours in the presence of PMBN at 2 μg/ml and the PPMO, a scrambled PPMO or nothing. The numbers in each cell represent the concentration of PPMO that reduced biofilm by 50% or greater.
Pseudomonas biofilms were grown in the presence or absence of PPMOs (as indicated). Biofilms were grown for 18 hours and then stained with crystal violet. Three strains were tested with multiple PPMO doses as shown. Percent reduction compared to no PPMO control is shown.
Polymyxin B nonapeptide (PMBN) was used at sub-inhibitory concentrations to enhance delivery of PPMOs in Pseudomonas.

For `C[C@@H](O)[C@H]1C(=O)N2C(C(=O)O)=C(S[C@@H]3CN[C@H](C(=O)N(C)C)C3)[C@H](C)[C@H]12` [meropenem], the results for the MIC with K. pneumoniae and in the test on NDM-1 strains were 32 µg/mL and 64 µg/mL, respectively.
Piperacillin/Tazobactam [Pip/Tazo] yielded an MIC against E. coli BW25113 of 4 µg/mL.
With Polymyxin B nonapeptide [PMBN], the “effect on biofilm formation” value in the test on Pseudomonas aeruginosa is “did not significantly alter biofilm formation”.
